In paper PMC4775387 (Neurochemical research, 2015):

Test system: D4 receptors, ICR mouse striatum
Assay: Antagonist effect on D-301-stimulated [35S]GTPγS binding in ICR mouse striatum
Format: biochemical
Details: antagonist concentrations up to 1 μM, unpublished data

With Clc1ccc(N2CCN(Cc3c[nH]c4ncccc34)CC2)cc1 [LY745870] the “effect on D-301-stimulated [35S]GTPγS binding” value was “no significant effect”.
